Experimental data taken from patent US4751302A, “Indazole derivatives” (priority 1982, dated 1988).

What was measured:
[1] = system: Carrageenin edema in rat's paw; test: Carrageenin Edema Test in Rat's Paw (anti-inflammatory activity, Table 1); type: in vivo; settings: 100 mg/kg oral; for inhibition in vivo at 100 mg/kg: hydrochloride, rat; for anti-inflammatory activity in comparison with compounds of the invention: Carrageenin edema
Description: An anti-inflammatory activity was measured by orally administering 100 mg/kg of a hydrochloride of the indazole derivative of this invention as set forth in Table 1 to an animal in accordance with the standard method of Carrageenin Edema Test in Rat's Paw described in C. A. Winter et al., Proc. Soc. Exp. Biol. Med., 111, 544 (1962).

in vivo = settings: mouse, ip, intraperitoneal, hydrochloride, male ddy mice

Row | Compound | inhibition in vivo at 100 mg/kg [1] | LD50 (in vivo) | anti-inflammatory activity in comparison with compounds of the invention [1]
1 | CCN(CC)CCCn1nc(N)c2c(Cl)cccc21 [(1), 1-(3-Diethylaminopropyl)-3-amino-4-chloroindazole] | 58% | 171 mg/kg | –
2 | CCN(CC)CCCn1nc(N)c2cc(Cl)ccc21 [(2), 1-(3-Diethylaminopropyl)-3-amino-5-chloroindazole] | 55% | 192 mg/kg | –
3 | CCN(CC)CCCn1nc(N)c2ccc(Cl)cc21 [(3), 1-(3-Diethylaminopropyl)-3-amino-6-chloroindazole] | 54% | 241 mg/kg | –
4 | CCN(CC)CCCn1nc(N)c2cccc(Cl)c21 [(4), 1-(3-Diethylaminopropyl)-3-amino-7-chloroindazole] | 59% | 273 mg/kg | –
5 | CCN(CC)CCCn1nc(N)c2cc(N)ccc21 [(5), 1-(3-Diethylaminopropyl)-3,5-diaminoindazole] | 59% | 311 mg/kg | –
6 | CCN(CC)CCCn1nc(N)c2cc(OC)ccc21 [(6), 1-(3-Diethylaminopropyl)-3-amino-5-methoxyindazole] | 56% | 188 mg/kg | –
7 | CCN(CC)CCCn1nc(N)c2cc(C)ccc21 [(7), 1-(3-Diethylaminopropyl)-3-amino-5-methylindazole] | 58% | 221 mg/kg | –
8 | CCCCN(CCCC)CCCn1nc(N)c2cc(Cl)ccc21 [(8), 1-(3-Di-n-butylaminopropyl)-3-amino-5-chloroindazole] | 56% | 231 mg/kg | –
9 | CC(CCn1nc(N)c2cc(Cl)ccc21)N(C)C (centres unmarked) [(9), 1-(3-Dimethylaminobutyl)-3-amino-5-chloroindazole] | 37% | 113 mg/kg | –
10 | CCN(CC)C(CCn1nc(N)c2cc(Cl)ccc21)CC(C)C (centres unmarked) [(10), 1-(3-Diethylamino-5-methylhexyl)-3-amino-5-chloroindazole] | 49% | 239 mg/kg | –
11 | Nc1nn(CCCN2CCCCC2)c2ccc(Cl)cc12 [(11), 1-(3-Piperidinopropyl)-3-amino-5-chloroindazole] | 54% | 211 mg/kg | –
12 | Nc1nn(CCCCCCN2CCCCC2)c2ccc(Cl)cc12 [(12), 1-(6-Piperidinohexyl)-3-amino-5-chloroindazole] | 28% | 337 mg/kg | –
13 | CC(CCn1nc(N)c2cc(Cl)ccc21)N1CCCCC1 (centres unmarked) [(13), 1-(3-Piperidinobutyl)-3-amino-5-chloroindazole] | 49% | 310 mg/kg | –
14 | CC(C)CC(CCn1nc(N)c2cc(Cl)ccc21)N1CCCCC1 (centres unmarked) [(14), 1-(3-Piperidino-5-methylhexyl)-3-amino-5-chloroindazole] | 34% | 301 mg/kg | –
15 | CC1CCCCN1CCCn1nc(N)c2cc(Cl)ccc21 (centres unmarked) [(15), 1-[3-(2-Methylpiperidino)propyl]-3-amino-5-chloroindazole] | 50% | 250 mg/kg | –
16 | CC1CCCC(C)N1CCCn1nc(N)c2cc(Cl)ccc21 (centres unmarked) [(16), 1-[3-(2,6-Dimethylpiperidino)propyl]-3-amino-5-chloroindazole] | 33% | 214 mg/kg | –
17 | Nc1nn(CCCN2CCC(O)CC2)c2ccc(Cl)cc12 [(17), 1-[3-(4-Hydroxypiperidino)propyl]-3-amino-5-chloroindazole] | 37% | 251 mg/kg | –
18 | Nc1nn(CCCN2CCC(Cl)CC2)c2ccc(Cl)cc12 [(18), 1-[3-(4-Chloropiperidino)propyl]-3-amino-5-chloroindazole] | 66% | 278 mg/kg | –
19 | Nc1nn(CCCN2CCCCCC2)c2ccc(Cl)cc12 [(19), 1-(3-Homopiperidinopropyl)-3-amino-5-chloroindazole] | 38% | 251 mg/kg | –
20 | CN1CCN(CCCn2nc(N)c3cc(Cl)ccc32)CC1 [(20), 1-[3-(4-Methylpiperazino)propyl]-3-amino-5-chloroindazole] | 26% | 278 mg/kg | –
21 | Nc1nn(CCCN2CCCC2)c2ccc(Cl)cc12 [(21), 1-(3-Pyrrolidinopropyl)-3-amino-5-chloroindazole] | 39% | 311 mg/kg | –
22 | Nc1nn(CCCN2CCOCC2)c2ccc(Cl)cc12 [(22), 1-(3-Morpholinopropyl)-3-amino-5-chloroindazole] | 46% | 388 mg/kg | –
23 | CCN(CC)CCCn1nc(N)c2c(O)cccc21 [(23), 1-(3-Diethylaminopropyl)-3-amino-4-hydroxyindazole] | 56% | 179 mg/kg | –
24 | CCN(CC)CCCn1nc(N)c2cc(O)ccc21 [(24), 1-(3-Diethylaminopropyl)-3-amino-5-hydroxyindazole] | 53% | 161 mg/kg | –
25 | CCN(CC)CCCn1nc(N)c2ccc(O)cc21 [(25), 1-(3-Diethylaminopropyl)-3-amino-6-hydroxyindazole] | 52% | 301 mg/kg | –

Row | Compound | inhibition in vivo at 100 mg/kg [1] | LD50 (in vivo) | anti-inflammatory activity in comparison with compounds of the invention [1]
26 | CCN(CC)CCCn1nc(N)c2cccc(O)c21 [(26), 1-(3-Diethylaminopropyl)-3-amino-7-hydroxyindazole] | 57% | 297 mg/kg | –
27 | CCN(CC)CCCn1nc(N)c2cc(I)ccc21 [(27), 1-(3-Diethylaminopropyl)-3-amino-5-iodoindazole] | 57% | 281 mg/kg | –
28 | CCN(CC)CCCn1nc(N)c2cccc(I)c21 [(28), 1-(3-Diethylaminopropyl)-3-amino-7-iodoindazole] | 54% | 103 mg/kg | –
29 | CCN(CC)CCCn1nc(N)c2cc(N)cc(N)c21 [(29), 1-(3-Diethylaminopropyl)-3,5,7-triaminoindazole] | 56% | 104 mg/kg | –
30 | CCCCN(CCCC)CCCn1nc(N)c2cc(O)ccc21 [(30), 1-(3-Di-n-butylaminopropyl)-3-amino-5-hydroxyindazole] | 54% | 255 mg/kg | –
31 | CC(CCn1nc(N)c2cc(O)ccc21)N(C)C (centres unmarked) [(31), 1-(3-Dimethylaminobutyl)-3-amino-5-hydroxyindazole] | 35% | 241 mg/kg | –
32 | CCN(CC)C(CCn1nc(N)c2cc(O)ccc21)CC(C)C (centres unmarked) [(32), 1-(3-Diethylamino-5-methylhexyl)-3-amino-5-hydroxyindazole] | 47% | 251 mg/kg | –
33 | Nc1nn(CCCN2CCCCC2)c2ccc(O)cc12 [(33), 1-(3-Piperidinopropyl)-3-amino-5-hydroxyindazole] | 52% | 227 mg/kg | –
34 | Nc1nn(CCCCCCN2CCCCC2)c2ccc(O)cc12 [(34), 1-(6-Piperidinohexyl)-3-amino-5-hydroxyindazole] | 26% | 231 mg/kg | –
35 | CC(CCn1nc(N)c2cc(O)ccc21)N1CCCCC1 (centres unmarked) [(35), 1-(3-Piperidinobutyl)-3-amino-5-hydroxyindazole] | 47% | 246 mg/kg | –
36 | CC(C)CC(CCn1nc(N)c2cc(O)ccc21)N1CCCCC1 (centres unmarked) [(36), 1-(3-Piperidino-5-methylhexyl)-3-amino-5-hydroxyindazole] | 32% | 251 mg/kg | –
37 | CC1CCCCN1CCCn1nc(N)c2cc(O)ccc21 (centres unmarked) [(37), 1-[3-(2-Methylpiperidino)propyl]-3-amino-5-hydroxyindazole] | 48% | 267 mg/kg | –
38 | CC1CCCC(C)N1CCCn1nc(N)c2cc(O)ccc21 (centres unmarked) [(38), 1-[3-(2,6-Dimethylpiperidino)propyl]-3-amino-5-hydroxyindazole] | 31% | 278 mg/kg | –
39 | Nc1nn(CCCN2CCC(O)CC2)c2ccc(O)cc12 [(39), 1-[3-(4-Hydroxypiperidino)propyl]-3-amino-5-hydroxyindazole] | 35% | 311 mg/kg | –
40 | Nc1nn(CCCN2CCC(Cl)CC2)c2ccc(O)cc12 [(40), 1-[3-(4-Chloropiperidino)propyl]-3-amino-5-hydroxyindazole] | 64% | 335 mg/kg | –
41 | Nc1nn(CCCN2CCCCCC2)c2ccc(O)cc12 [(41), 1-(3-Homopiperidinopropyl)-3-amino-5-hydroxyindazole] | 36% | 340 mg/kg | –
42 | CN1CCN(CCCn2nc(N)c3cc(O)ccc32)CC1 [(42), 1-[3-(4-Methylpiperazino)propyl]-3-amino-5-hydroxyindazole] | 24% | 341 mg/kg | –
43 | Nc1nn(CCCN2CCCC2)c2ccc(O)cc12 [(43), 1-(3-Pyrrolidinopropyl)-3-amino-5-hydroxyindazole] | 36% | 211 mg/kg | –
44 | Nc1nn(CCCN2CCOCC2)c2ccc(O)cc12 [(44), 1-(3-Morpholinopropyl)-3-amino-5-hydroxyindazole] | 46% | 368 mg/kg | –
45 | CCN(CC)CCCNc1n[nH]c2cccc(Cl)c12 [(45), 3-(3-Diethylaminopropylamino)-4-chloroindazole] | 61% | 271 mg/kg | –
46 | CCN(CC)CCCNc1n[nH]c2cc(Cl)ccc12 [(47), 3-(3-Diethylaminopropylamino)-6-chloroindazole] | 58% | 278 mg/kg | –
47 | CCCn1nc(N)c2ccccc21 [Compound C-1, 1-propyl-3-aminoindazole, reference compound] | 7% | – | little anti-inflammatory activity
48 | Nc1nn(CCc2ccccc2)c2ccccc12 [Compound C-2, 1-(2-phenylethyl)-3-aminoindazole, reference compound] | 7% | – | little anti-inflammatory activity
49 | Nc1n[nH]c2c(N)cccc12 [Compound C-3, 3,7-diaminoindazole, reference compound] | 6% | – | little anti-inflammatory activity
